Measurements as given in publication PMC11921695 (BMC Cancer, 2025).
Where “and” joins values, the source holds several entries; their conditions need not be identical. Equal values may be shown once. Read-outs that look alike come from different tables or passages of the source.

What was measured:
[1] = system: CYPs 3A, 1A and 2C9; parameters: method as in Investigator Brochure; details: protocol background; ref Investigator Brochure; cited from earlier work
[2] = assay type: in vivo; details: trough plasma, individual patients
Procedure: Peripheral blood w ill be sent to Lab21 for anti-retroviral drug levels on Cycle 1 D ay 1 Pre-
treatment, Cycle 1 Day 15 and Cycle 4 D ay 22/Cycle 5 Day 1. […]
• 5mls of venous blood should be collected into a K2- ED TA BD vacutainer
• Samples should be inverted several times to ensure adequate mix ing. […]
• Samples should be stored at - 200C. […]
Ant i-retroviral drug lev els
• Samples to be collected Cycle 1 Day 1 Pre- treatment and Cycle 1 Day 15 and Cycle 4 Day […]
• 2x 1000 µl of plasma should be aliquoted to 1.5 ml plastic screw top tubes.
• Samples should be stored at - 200C (or below) for 24 hours befor e sending. […]
Therapeutic drug monitoring of the cART therapies was undertaken by Lab 21 Ltd (Cambridge, UK). Blood plasma was prepared from 5 ml of venous blood collected in K2-EDTA BD vacutainer tubes from kits provided by Covance. Samples were centrifuged at 2000 g for 20 minutes at room temperature, frozen at sites, packed in dry ice and sent to Lab 21 Ltd (Cambridge, UK) where they were stored at -20°C prior to analysis.

[3] = assay type: in vivo; details: trough plasma, Cycle 5 Day 15, individual patient
[4] = system: non-small cell lung cancer; parameters: method as in SCART protocol 7.3.1; details: selumetinib 75mg bd + docetaxol 75mg/m2 iv day 1 every 21 days (combination arm) or chemotherapy alone arm; ref SCART protocol 7.3.1; cited from earlier work
[5] = system: Kaposi's sarcoma; parameters: method as in Tulpule, et al. 2002; details: 100mg/m2 q 2 weeks, second-line; ref Tulpule, et al. 2002; cited from earlier work
[6] = Cycle 1 Day 1 (pre-selumetinib), selumetinib starting dose 75 mg bd
[7] = Cycle 1 Day 15, selumetinib starting dose 75 mg bd
[8] = Cycle 1 Day 1 (pre-selumetinib), selumetinib starting dose 50 mg bd
[9] = Cycle 1 Day 15, selumetinib starting dose 50 mg bd
[10] = Cycle 5 Day 1, selumetinib starting dose 50 mg bd
[11] = Cycle 5 Day 1, selumetinib starting dose 75 mg bd

For `Cn1cnc2c(F)c(Nc3ccc(Br)cc3Cl)c(C(=O)NOCCO)cc21` [AZD6244], the “induction of CYPs 3A, 1A and 2C9” value [1] is given as “weak”.

For `Nc1nc(NC2CC2)c2ncn([C@H]3C=C[C@@H](CO)C3)c2n1` [Abacavir], the “Antiretroviral drug Concentration” value [2, 6] was 1060 ng/mL and the “Antiretroviral drug Concentration” value [2, 7] was 246 ng/mL.

With `COC(=O)N[C@H](C(=O)N[C@@H](Cc1ccccc1)[C@@H](O)CN(Cc1ccc(-c2ccccn2)cc1)NC(=O)[C@@H](NC(=O)OC)C(C)(C)C)C(C)(C)C` [Atazanavir] the “Antiretroviral drug Concentration” value [2, 6] was 758 ng/mL and the “Antiretroviral drug Concentration” value [2, 7] was 5797 ng/mL.

With `O=C1Nc2ccc(Cl)cc2[C@@](C#CC2CC2)(C(F)(F)F)O1` [Efavirenz] the “Antiretroviral drug Concentration” value [2, 8] was 4545 ng/mL, the “Antiretroviral drug Concentration” value [2, 6] was 3378 ng/mL and the “Antiretroviral drug Concentration” value [2, 9] was 4180 ng/mL. The “Antiretroviral drug Concentration” value [2, 7] was 3139 ng/mL and the “Antiretroviral drug Concentration” value [2, 10] was 6257 ng/mL.

In the case of `Nc1ccn([C@@H]2CS[C@H](CO)O2)c(=O)n1` [Lamivudine], the “Antiretroviral drug Concentration” value [2, 6] is reported as 817 ng/mL and the “Antiretroviral drug Concentration” value [2, 7] is reported as 512 ng/mL.

For `CC(C)c1nc(CN(C)C(=O)N[C@H](C(=O)N[C@@H](Cc2ccccc2)C[C@H](O)[C@H](Cc2ccccc2)NC(=O)OCc2cncs2)C(C)C)cs1` [Ritonavir], the “Antiretroviral drug Concentration” value [2, 8] was 516 ng/mL and 94 ng/mL, the “Antiretroviral drug Concentration” value [2, 6] was 364 ng/mL and 342 ng/mL and the “Antiretroviral drug Concentration” value [2, 9] was 462 ng/mL and 575 ng/mL and 246 ng/mL. The “Antiretroviral drug Concentration” value [2, 7] was 1585 ng/mL and 564 ng/mL, the “Antiretroviral drug Concentration” value [2, 10] was 328 ng/mL and 566 ng/mL and the “Antiretroviral drug Concentration” value [2, 11] was 431 ng/mL.

In the case of `C[C@H](Cn1cnc2c(N)ncnc21)OCP(=O)(O)O` [Tenofovir], the “Antiretroviral drug Concentration” value [2, 8] is reported as 133 ng/mL and 15 ng/mL and 90 ng/mL, the “Antiretroviral drug Concentration” value [2, 6] is reported as 84 ng/mL and 30 ng/mL and 60 ng/mL and 130 ng/mL and 90 ng/mL and the “Antiretroviral drug Concentration” value [2, 9] is reported as 51 ng/mL and 234 ng/mL and 43 ng/mL. For the same compound, the “Antiretroviral drug Concentration” value [2, 7] was 123 ng/mL and 46 ng/mL and 239 ng/mL and 40 ng/mL, the “Antiretroviral drug Concentration” value [2, 10] was 55 ng/mL and the “Antiretroviral drug Concentration” value [2, 11] was 135 ng/mL and 104 ng/mL. For the same compound, the “Antiretroviral drug Concentration” value ([3]; selumetinib starting dose 50 mg bd) was 230 ng/mL and the “Antiretroviral drug Concentration” value ([3]; selumetinib starting dose 75 mg bd) was 143 ng/mL.

In the case of `CC(=O)O[C@@]12CO[C@@H]1C[C@H](O)[C@@]1(C)C(=O)[C@H](O)C3=C(C)[C@@H](OC(=O)[C@H](O)[C@@H](NC(=O)OC(C)(C)C)c4ccccc4)C[C@@](O)([C@@H](OC(=O)c4ccccc4)[C@H]21)C3(C)C` [docetaxol], the “febrile neutropenia, patients” value [4] is given as 0/42.

In the case of `CC(=O)O[C@H]1C(=O)[C@@]2(C)[C@H]([C@H](OC(=O)c3ccccc3)[C@]3(O)C[C@H](OC(=O)[C@H](O)[C@@H](NC(=O)c4ccccc4)c4ccccc4)C(C)=C1C3(C)C)[C@]1(OC(C)=O)CO[C@@H]1C[C@@H]2O` [paclitaxel], the “median PFS” value [5] is given as 39 weeks and the response rate [5] is given as 56%.
